Test results published in paper PMC7047428 (ACS Central Science, 2020).
pEC50: −log10 of the molar value.

Experiments:
[1] = molecular target: T1, D2R WT (Homo sapiens, UniProt P14416); test: Split luciferase GloSensor cAMP assay, activation of Gi protein; type: cell-based; details: for G protein EC50: wild type D2R, HEK 293T, cAMP GloSensor
[2] = molecular target: T1, D2R WT; test: Tango arrestin recruitment assay; type: cell-based; details: wild type D2R, HTLA cells

T1 sequence (P14416 whole entry): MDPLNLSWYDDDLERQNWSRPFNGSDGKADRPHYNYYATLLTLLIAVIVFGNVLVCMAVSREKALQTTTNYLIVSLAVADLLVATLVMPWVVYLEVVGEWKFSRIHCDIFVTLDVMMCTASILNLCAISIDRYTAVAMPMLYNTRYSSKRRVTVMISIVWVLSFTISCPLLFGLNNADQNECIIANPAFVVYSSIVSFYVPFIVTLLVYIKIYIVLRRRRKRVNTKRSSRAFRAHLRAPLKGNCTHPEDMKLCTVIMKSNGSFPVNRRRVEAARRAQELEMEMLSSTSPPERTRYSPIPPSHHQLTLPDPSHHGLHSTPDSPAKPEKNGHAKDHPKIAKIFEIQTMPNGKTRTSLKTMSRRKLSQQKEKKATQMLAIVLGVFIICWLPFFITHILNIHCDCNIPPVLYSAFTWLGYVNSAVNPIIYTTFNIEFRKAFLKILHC

SMILES | pEC50 [1] | G protein EC50 [1] | β-arrestin EC50 [2]
Oc1c(CN2CCN(c3ccccn3)CC2)cc(F)c2cccnc12 [MLS-d1, 5-Fluoro-7-((4-(pyridin-2-yl)piperazin-1-yl)methyl)quinolin-8-ol] | 7.73 |  | 
Oc1c(CN2CCN(c3ccccn3)CC2)ccc2cccnc12 [MLS-d2, 7-((4-(Pyridin-2-yl)piperazin-1-yl)methyl)quinolin-8-ol] | 7.02 |  | 
Oc1c(CN2CCN(c3ccccn3)CC2)cc(Br)c2cccnc12 [MLS-d3, 5-Bromo-7-((4-(pyridin-2-yl)piperazin-1-yl)methyl)quinolin-8-ol] |  | completely inactive | completely inactive
O=[N+]([O-])c1cc(CN2CCN(c3ccccn3)CC2)c(O)c2ncccc12 [MLS-d4, 5-Nitro-7-((4-(pyridin-2-yl)piperazin-1-yl)methyl)quinolin-8-ol] |  | did not show activation | did not show activation
